The text below walks through data of the supplement of paper PMC10307832.

The subject of one test is NCI-H2405. In words: relative viability (nuclei count vs DMSO), 5 days (fraction); higher = more cells survive. The note with it: first compound 6.325 µM. Put shortly:
(§1)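 Lung cancer cell lines in 1536-well plates were dosed by pin tool the day after seeding, either with one drug alone or with a fixed anchor-drug dose plus five library-drug doses (not always all listed) in √10 steps. After 5 days, cells were fixed and their nuclei stained in one step (final 0.05% Triton X-100, 1% formaldehyde, 1 ug/ml Hoechst), then counted on 4× images. Relative viability is the nuclei count in treated wells divided by that in vehicle wells. Values are medians of duplicate plates.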
`COCC1(CO)C(=O)C2CCN1CC2` (configuration not stated) [PRIMA-1MET] + Cc1nc(NC(=O)N2CCC[C@H]2C(N)=O)sc1-c1ccnc(C(C)(C)C(F)(F)F)c1 [Alpelisib] (partner 2 µM) registered a relative viability of 0.625.
On to `COCC1(CO)C(=O)C2CCN1CC2` (configuration not stated) [PRIMA-1MET] + C[C@@H](Oc1cc(-c2cnn(C3CCNCC3)c2)cnc1N)c1c(Cl)ccc(F)c1Cl [Crizotinib] (partner 1 µM), for which the relative viability turned out to be 0.818.

Staying with this test, now noted: first compound 20 µM.
In turn, `COCC1(CO)C(=O)C2CCN1CC2` (configuration not stated) [PRIMA-1MET] + O=C(CCCCCCC(=O)Nc1ccccc1)NO [Vorinostat] (partner 1 µM) displayed a relative viability of 0.106.
The same measure, in the same setting: as for `COCC1(CO)C(=O)C2CCN1CC2` (configuration not stated) [PRIMA-1MET] + C[C@]1(O)C[C@@H](c2nc(-c3ccc4ccc(-c5ccccc5)nc4c3)c3c(N)nccn32)C1 [Linsitinib] (partner 1 µM), the figure is 0.0877; as for `COCC1(CO)C(=O)C2CCN1CC2` (configuration not stated) [PRIMA-1MET] + Cc1cc(Nc2cc(N3CCN(C)CC3)nc(Sc3ccc(NC(=O)C4CC4)cc3)n2)n[nH]1 [Tozasertib] (partner 0.1 µM), 0.329; as for `COCC1(CO)C(=O)C2CCN1CC2` (configuration not stated) [PRIMA-1MET] + Cc1nc(NC(=O)N2CCC[C@H]2C(N)=O)sc1-c1ccnc(C(C)(C)C(F)(F)F)c1 [Alpelisib] (partner 2 µM), 0.0731.
On the same count and under the same terms, to `COCC1(CO)C(=O)C2CCN1CC2` (configuration not stated) [PRIMA-1MET] + C[C@@H](Oc1cc(-c2cnn(C3CCNCC3)c2)cnc1N)c1c(Cl)ccc(F)c1Cl [Crizotinib] (partner 1 µM) belongs 0.452.

For the next test, the system named is CAL-12T. The description is as above. The note with it: first compound 0.2 µM. Put shortly: as §1
As for `COCC1(CO)C(=O)C2CCN1CC2` (configuration not stated) [PRIMA-1MET] + O=C(CCCCCCC(=O)Nc1ccccc1)NO [Vorinostat] (partner 1 µM), the relative viability is 0.78.
On the same count and under the same terms, to `COCC1(CO)C(=O)C2CCN1CC2` (configuration not stated) [PRIMA-1MET] + C[C@]1(O)C[C@@H](c2nc(-c3ccc4ccc(-c5ccccc5)nc4c3)c3c(N)nccn32)C1 [Linsitinib] (partner 1 µM) belongs 0.725.
The molecule `COCC1(CO)C(=O)C2CCN1CC2` (configuration not stated) [PRIMA-1MET] + Cc1cc(Nc2cc(N3CCN(C)CC3)nc(Sc3ccc(NC(=O)C4CC4)cc3)n2)n[nH]1 [Tozasertib] (partner 0.1 µM) registered a relative viability of 0.339.
On the same count and under the same terms, to `COCC1(CO)C(=O)C2CCN1CC2` (configuration not stated) [PRIMA-1MET] + Cc1nc(NC(=O)N2CCC[C@H]2C(N)=O)sc1-c1ccnc(C(C)(C)C(F)(F)F)c1 [Alpelisib] (partner 2 µM) belongs 1.19.
Same read-out and setting: as for `COCC1(CO)C(=O)C2CCN1CC2` (configuration not stated) [PRIMA-1MET] + C[C@@H](Oc1cc(-c2cnn(C3CCNCC3)c2)cnc1N)c1c(Cl)ccc(F)c1Cl [Crizotinib] (partner 1 µM), the figure is 0.788.

Still in this test, the particulars now being: first compound 0.6325 µM.
`COCC1(CO)C(=O)C2CCN1CC2` (configuration not stated) [PRIMA-1MET] + O=C(CCCCCCC(=O)Nc1ccccc1)NO [Vorinostat] (partner 1 µM) displayed a relative viability of 0.694.
`COCC1(CO)C(=O)C2CCN1CC2` (configuration not stated) [PRIMA-1MET] + C[C@]1(O)C[C@@H](c2nc(-c3ccc4ccc(-c5ccccc5)nc4c3)c3c(N)nccn32)C1 [Linsitinib] (partner 1 µM): the relative viability was found to be 0.733.
On the same count and under the same terms, to `COCC1(CO)C(=O)C2CCN1CC2` (configuration not stated) [PRIMA-1MET] + Cc1cc(Nc2cc(N3CCN(C)CC3)nc(Sc3ccc(NC(=O)C4CC4)cc3)n2)n[nH]1 [Tozasertib] (partner 0.1 µM) belongs 0.275.
For the molecule `COCC1(CO)C(=O)C2CCN1CC2` (configuration not stated) [PRIMA-1MET] + Cc1nc(NC(=O)N2CCC[C@H]2C(N)=O)sc1-c1ccnc(C(C)(C)C(F)(F)F)c1 [Alpelisib] (partner 2 µM), the relative viability turned out to be 1.29.
Turning to `COCC1(CO)C(=O)C2CCN1CC2` (configuration not stated) [PRIMA-1MET] + C[C@@H](Oc1cc(-c2cnn(C3CCNCC3)c2)cnc1N)c1c(Cl)ccc(F)c1Cl [Crizotinib] (partner 1 µM), the relative viability was 0.834.

Staying with this test, now noted: first compound 2 µM.
`COCC1(CO)C(=O)C2CCN1CC2` (configuration not stated) [PRIMA-1MET] + O=C(CCCCCCC(=O)Nc1ccccc1)NO [Vorinostat] (partner 1 µM) had a relative viability of 0.637.
Same read-out and setting: to `COCC1(CO)C(=O)C2CCN1CC2` (configuration not stated) [PRIMA-1MET] + C[C@]1(O)C[C@@H](c2nc(-c3ccc4ccc(-c5ccccc5)nc4c3)c3c(N)nccn32)C1 [Linsitinib] (partner 1 µM) belongs 0.745.
Same read-out and setting: to `COCC1(CO)C(=O)C2CCN1CC2` (configuration not stated) [PRIMA-1MET] + Cc1cc(Nc2cc(N3CCN(C)CC3)nc(Sc3ccc(NC(=O)C4CC4)cc3)n2)n[nH]1 [Tozasertib] (partner 0.1 µM) belongs 0.282; to `COCC1(CO)C(=O)C2CCN1CC2` (configuration not stated) [PRIMA-1MET] + Cc1nc(NC(=O)N2CCC[C@H]2C(N)=O)sc1-c1ccnc(C(C)(C)C(F)(F)F)c1 [Alpelisib] (partner 2 µM), 1.08; to `COCC1(CO)C(=O)C2CCN1CC2` (configuration not stated) [PRIMA-1MET] + C[C@@H](Oc1cc(-c2cnn(C3CCNCC3)c2)cnc1N)c1c(Cl)ccc(F)c1Cl [Crizotinib] (partner 1 µM), 0.687.

Still in this test, the particulars now being: first compound 6.325 µM.
Take `COCC1(CO)C(=O)C2CCN1CC2` (configuration not stated) [PRIMA-1MET] + O=C(CCCCCCC(=O)Nc1ccccc1)NO [Vorinostat] (partner 1 µM): the relative viability came to 0.589.
On the same count and under the same terms, to `COCC1(CO)C(=O)C2CCN1CC2` (configuration not stated) [PRIMA-1MET] + C[C@]1(O)C[C@@H](c2nc(-c3ccc4ccc(-c5ccccc5)nc4c3)c3c(N)nccn32)C1 [Linsitinib] (partner 1 µM) belongs 0.85; to `COCC1(CO)C(=O)C2CCN1CC2` (configuration not stated) [PRIMA-1MET] + Cc1cc(Nc2cc(N3CCN(C)CC3)nc(Sc3ccc(NC(=O)C4CC4)cc3)n2)n[nH]1 [Tozasertib] (partner 0.1 µM), 0.326.
Same read-out and setting: as for `COCC1(CO)C(=O)C2CCN1CC2` (configuration not stated) [PRIMA-1MET] + Cc1nc(NC(=O)N2CCC[C@H]2C(N)=O)sc1-c1ccnc(C(C)(C)C(F)(F)F)c1 [Alpelisib] (partner 2 µM), the figure is 1.42; as for `COCC1(CO)C(=O)C2CCN1CC2` (configuration not stated) [PRIMA-1MET] + C[C@@H](Oc1cc(-c2cnn(C3CCNCC3)c2)cnc1N)c1c(Cl)ccc(F)c1Cl [Crizotinib] (partner 1 µM), 0.661.

The same test, now with this note: first compound 20 µM.
`COCC1(CO)C(=O)C2CCN1CC2` (configuration not stated) [PRIMA-1MET] + O=C(CCCCCCC(=O)Nc1ccccc1)NO [Vorinostat] (partner 1 µM): the relative viability came out at 0.0657.
On the same count and under the same terms, as for `COCC1(CO)C(=O)C2CCN1CC2` (configuration not stated) [PRIMA-1MET] + C[C@]1(O)C[C@@H](c2nc(-c3ccc4ccc(-c5ccccc5)nc4c3)c3c(N)nccn32)C1 [Linsitinib] (partner 1 µM), the figure is 0.543; as for `COCC1(CO)C(=O)C2CCN1CC2` (configuration not stated) [PRIMA-1MET] + Cc1cc(Nc2cc(N3CCN(C)CC3)nc(Sc3ccc(NC(=O)C4CC4)cc3)n2)n[nH]1 [Tozasertib] (partner 0.1 µM), 0.263.
On the same count and under the same terms, to `COCC1(CO)C(=O)C2CCN1CC2` (configuration not stated) [PRIMA-1MET] + Cc1nc(NC(=O)N2CCC[C@H]2C(N)=O)sc1-c1ccnc(C(C)(C)C(F)(F)F)c1 [Alpelisib] (partner 2 µM) belongs 0.264; to `COCC1(CO)C(=O)C2CCN1CC2` (configuration not stated) [PRIMA-1MET] + C[C@@H](Oc1cc(-c2cnn(C3CCNCC3)c2)cnc1N)c1c(Cl)ccc(F)c1Cl [Crizotinib] (partner 1 µM), 0.283.
